From the supplement of paper PMC10307832

Columns and labels:
Experiment in all cases: relative viability (nuclei count vs DMSO), 5 days (fraction); higher = more cells survive
COR-L23 = tested on: COR-L23
How it was run: (§1)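 Nuclei were stained with Hoechst during a one-step fixation (final 0.05% Triton X-100, 1% formaldehyde, 1 ug/ml Hoechst) carried out 5 days after dosing, then counted on 4× images. The cells, lung cancer lines in 1536-well plates, had been dosed by pin tool the day after seeding with one drug alone or a fixed anchor-drug dose plus five library-drug doses (not always all listed) in √10 steps. Relative viability is the nuclei count in treated wells divided by that in vehicle wells, and each value is the median of duplicate plates.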

ChaGo-K-1 = tested on: ChaGo-K-1
How it was run: as §1

EPLC-272H = tested on: EPLC-272H
How it was run: as §1

H3255 = tested on: H3255
How it was run: as §1

HARA = tested on: HARA
How it was run: as §1

HCC-78 = tested on: HCC-78
How it was run: as §1

HOP-62 = tested on: HOP-62
How it was run: as §1

LCLC-97TM1 = tested on: LCLC-97TM1
How it was run: as §1

LXF-289 = tested on: LXF-289
How it was run: as §1

NCI-H1395 = tested on: NCI-H1395
How it was run: as §1

NCI-H1437 = tested on: NCI-H1437
How it was run: as §1

NCI-H1650 = tested on: NCI-H1650
How it was run: as §1

NCI-H1666 = tested on: NCI-H1666
How it was run: as §1

NCI-H1793 = tested on: NCI-H1793
How it was run: as §1

NCI-H1944 = tested on: NCI-H1944
How it was run: as §1

NCI-H2085 = tested on: NCI-H2085
How it was run: as §1

NCI-H2087 = tested on: NCI-H2087
How it was run: as §1

NCI-H2126 = tested on: NCI-H2126
How it was run: as §1

NCI-H3122 = tested on: NCI-H3122
How it was run: as §1

NCI-H441 = tested on: NCI-H441
How it was run: as §1

NCI-H596 = tested on: NCI-H596
How it was run: as §1

NCI-H661 = tested on: NCI-H661
How it was run: as §1

PC-14 = tested on: PC-14
How it was run: as §1

Compound: Cc1csc(=NC2CCCCC2)n1/N=C/c1ccc(O)c(O)c1O [MIM1] + Nc1ncn([C@H]2C[C@H](O)[C@@H](CO)O2)c(=O)n1 [Decitabine] (partner 2 µM)
- relative viability (COR-L23; first compound 0.2 µM): 0.405
- relative viability (COR-L23; first compound 0.6325 µM): 0.475
- relative viability (COR-L23; first compound 2 µM): 0.418
- relative viability (COR-L23; first compound 6.325 µM): 0.346
- relative viability (COR-L23; first compound 20 µM): 0.225
- relative viability (ChaGo-K-1; first compound 0.2 µM): 0.542
- relative viability (ChaGo-K-1; first compound 0.6325 µM): 0.527
- relative viability (ChaGo-K-1; first compound 2 µM): 0.544
- relative viability (ChaGo-K-1; first compound 6.325 µM): 0.459
- relative viability (ChaGo-K-1; first compound 20 µM): 0.18
- relative viability (EPLC-272H; first compound 0.2 µM): 0.36
- relative viability (EPLC-272H; first compound 0.6325 µM): 0.382
- relative viability (EPLC-272H; first compound 2 µM): 0.375
- relative viability (EPLC-272H; first compound 6.325 µM): 0.29
- relative viability (EPLC-272H; first compound 20 µM): 0.154
- relative viability (H3255; first compound 0.2 µM): 0.562
- relative viability (H3255; first compound 0.6325 µM): 0.657
- relative viability (H3255; first compound 2 µM): 0.527
- relative viability (H3255; first compound 6.325 µM): 0.486
- relative viability (H3255; first compound 20 µM): 0.242
- relative viability (HARA; first compound 0.2 µM): 0.529
- relative viability (HARA; first compound 0.6325 µM): 0.722
- relative viability (HARA; first compound 2 µM): 0.697
- relative viability (HARA; first compound 6.325 µM): 0.475
- relative viability (HARA; first compound 20 µM): 0.204
- relative viability (HCC-78; first compound 0.2 µM): 0.784
- relative viability (HCC-78; first compound 2 µM): 0.728
- relative viability (HCC-78; first compound 6.325 µM): 0.502
- relative viability (HCC-78; first compound 20 µM): 0.426
- relative viability (HOP-62; first compound 0.2 µM): 0.206
- relative viability (HOP-62; first compound 0.6325 µM): 0.222
- relative viability (HOP-62; first compound 2 µM): 0.206
- relative viability (HOP-62; first compound 6.325 µM): 0.222
- relative viability (HOP-62; first compound 20 µM): 0.147
- relative viability (LCLC-97TM1; first compound 0.2 µM): 0.245
- relative viability (LCLC-97TM1; first compound 0.6325 µM): 0.238
- relative viability (LCLC-97TM1; first compound 2 µM): 0.234
- relative viability (LCLC-97TM1; first compound 6.325 µM): 0.214
- relative viability (LCLC-97TM1; first compound 20 µM): 0.0699
- relative viability (LXF-289; first compound 0.2 µM): 0.399
- relative viability (LXF-289; first compound 0.6325 µM): 0.368
- relative viability (LXF-289; first compound 2 µM): 0.394
- relative viability (LXF-289; first compound 6.325 µM): 0.328
- relative viability (LXF-289; first compound 20 µM): 0.253
- relative viability (NCI-H1395; first compound 0.2 µM): 0.708
- relative viability (NCI-H1395; first compound 0.6325 µM): 0.793
- relative viability (NCI-H1395; first compound 2 µM): 0.646
- relative viability (NCI-H1395; first compound 6.325 µM): 0.688
- relative viability (NCI-H1395; first compound 20 µM): 0.427
- relative viability (NCI-H1437; first compound 0.2 µM): 0.592
- relative viability (NCI-H1437; first compound 0.6325 µM): 0.547
- relative viability (NCI-H1437; first compound 2 µM): 0.586
- relative viability (NCI-H1437; first compound 6.325 µM): 0.368
- relative viability (NCI-H1437; first compound 20 µM): 0.303
- relative viability (NCI-H1650; first compound 0.2 µM): 0.428
- relative viability (NCI-H1650; first compound 0.6325 µM): 0.448
- relative viability (NCI-H1650; first compound 2 µM): 0.348
- relative viability (NCI-H1650; first compound 6.325 µM): 0.199
- relative viability (NCI-H1650; first compound 20 µM): 0.135
- relative viability (NCI-H1666; first compound 0.2 µM): 0.714
- relative viability (NCI-H1666; first compound 0.6325 µM): 0.741
- relative viability (NCI-H1666; first compound 2 µM): 0.665
- relative viability (NCI-H1666; first compound 6.325 µM): 0.734
- relative viability (NCI-H1666; first compound 20 µM): 0.467
- relative viability (NCI-H1793; first compound 0.2 µM): 0.507
- relative viability (NCI-H1793; first compound 2 µM): 0.518
- relative viability (NCI-H1793; first compound 6.325 µM): 0.479
- relative viability (NCI-H1793; first compound 20 µM): 0.495
- relative viability (NCI-H1944; first compound 0.2 µM): 0.399
- relative viability (NCI-H1944; first compound 0.6325 µM): 0.467
- relative viability (NCI-H1944; first compound 2 µM): 0.403
- relative viability (NCI-H1944; first compound 6.325 µM): 0.412
- relative viability (NCI-H1944; first compound 20 µM): 0.355
- relative viability (NCI-H2085; first compound 0.2 µM): 0.539
- relative viability (NCI-H2085; first compound 0.6325 µM): 0.522
- relative viability (NCI-H2085; first compound 2 µM): 0.516
- relative viability (NCI-H2085; first compound 6.325 µM): 0.491
- relative viability (NCI-H2085; first compound 20 µM): 0.563
- relative viability (NCI-H2087; first compound 0.2 µM): 0.286
- relative viability (NCI-H2087; first compound 0.6325 µM): 0.273
- relative viability (NCI-H2087; first compound 2 µM): 0.231
- relative viability (NCI-H2087; first compound 6.325 µM): 0.327
- relative viability (NCI-H2087; first compound 20 µM): 0.246
- relative viability (NCI-H2126; first compound 0.2 µM): 0.659
- relative viability (NCI-H2126; first compound 0.6325 µM): 0.628
- relative viability (NCI-H2126; first compound 2 µM): 0.545
- relative viability (NCI-H2126; first compound 6.325 µM): 0.584
- relative viability (NCI-H2126; first compound 20 µM): 0.488
- relative viability (NCI-H3122; first compound 0.2 µM): 0.449
- relative viability (NCI-H3122; first compound 0.6325 µM): 0.507
- relative viability (NCI-H3122; first compound 2 µM): 0.487
- relative viability (NCI-H3122; first compound 6.325 µM): 0.407
- relative viability (NCI-H3122; first compound 20 µM): 0.411
- relative viability (NCI-H441; first compound 0.2 µM): 0.132
- relative viability (NCI-H441; first compound 0.6325 µM): 0.252
- relative viability (NCI-H441; first compound 2 µM): 0.241
- relative viability (NCI-H441; first compound 6.325 µM): 0.173
- relative viability (NCI-H441; first compound 20 µM): 0.178
- relative viability (NCI-H596; first compound 0.2 µM): 1.09
- relative viability (NCI-H596; first compound 0.6325 µM): 1.1
- relative viability (NCI-H596; first compound 2 µM): 0.831
- relative viability (NCI-H596; first compound 6.325 µM): 0.84
- relative viability (NCI-H596; first compound 20 µM): 0.841
- relative viability (NCI-H661; first compound 0.2 µM): 0.496
- relative viability (NCI-H661; first compound 0.6325 µM): 0.571
- relative viability (NCI-H661; first compound 2 µM): 0.577
- relative viability (NCI-H661; first compound 6.325 µM): 0.416
- relative viability (NCI-H661; first compound 20 µM): 0.284
- relative viability (PC-14; first compound 0.2 µM): 0.17
- relative viability (PC-14; first compound 0.6325 µM): 0.197
- relative viability (PC-14; first compound 2 µM): 0.201
- relative viability (PC-14; first compound 6.325 µM): 0.137
- relative viability (PC-14; first compound 20 µM): 0.0966
